Results as given in publication PMC5585240, “NF-κB inhibitors, unique γ-pyranol-γ-lactams with sulfide and sulfoxide moieties from Hawaiian plant Lycopodiella cernua derived fungus Paraphaeosphaeria neglecta FT462” (Scientific Reports, 2017).
Entries after “also recorded” stand apart in the source; their conditions may differ. Like-named read-outs stand apart in the source and are kept apart here.

Key:
[1] = tested on: E. coli JW2496 (∆bamB); assay: Antibacterial microbroth dilution assay; format: cell-based; details: 20 μg/mL (maximum test concentration)
Description: MIC values were determined against E. coli JW2496 (∆bamB) and other bacteria using the standard microbroth dilution method exactly as previously described, which is based on the methods by the Clinical and Laboratory Standards Institute[41], [42]. The maximum test concentration used was 20 μg/mL.

[2] = Cytotoxicity under the same conditions as the NF-κB assay; format: cell-based; details: human
[3] = tested on: iNOS; assay: Nitric oxide (iNOS) assay in LPS-stimulated RAW 264.7 cells, Griess reagent; format: cell-based; details: Mus musculus, RAW264.7; lipopolysaccharide-stimulated (1 μg/mL, 20 h) RAW 264.7 cells, nitrite; read-out: iNOS inhibition IC50
Description: RAW 264.7 cells (1 × 10^4 cells/well) were seeded and incubated in 96-well culture plates at 37 °C, 5% CO2 in humidified air for 24 h. Then, complete medium was replaced with phenol red-free medium containing various concentrations of the test compounds, followed by LPS stimulation (1 μg/mL) for 20 h. The nitrite released in the culture media was reacted with Griess reagent, and the absorbance was measured at 540 nm. The amount of nitrite was calculated using a standard curve of known nitrite concentration versus absorbance at 540 nm. TPCK was used as a positive control. IC50 values were calculated using Table Curve 2D Windows V4.07 by AISN Software Inc[44].

[4] = Cytotoxicity in the iNOS assay; format: cell-based; details: mouse, RAW 264.7 cells
[5] = tested on: NF-κB; assay: TNF-α-induced NF-κB luciferase reporter assay in human embryonic kidney cells 293; format: cell-based; details: 293 cells, 6 h, read-out: NF-κB inhibition IC50
Description: We employed human embryonic kidney cells 293, Panomic for monitoring changes occurring along the NF-κB pathway. Stable constructed cells were seeded into 96-well plates at 20 × 10^3 cells per well. Cells were maintained in Dulbecco’s modified Eagle’s medium (DMEM) (Invitrogen Co.), supplemented with 10% FBS, 100 units/mL penicillin, 100 μg/mL streptomycin, and 2 mM L-glutamine. After 48 h incubation, the medium was replaced and the cells were treated with various concentrations of test substances. TNF-α (human, recombinant, E. coli, Calbiochem) was used as an activator at a concentration of 2 ng/mL (0.14 nM). The plate was incubated for 6 h. Spent medium was discarded, and the cells were washed once with PBS. Cells were lysed using 50 μL (for 96-well plate) of reporter lysis buffer from Promega by incubating for 5 min on a shaker, and stored at −80 °C. The luciferase assay was performed using the Luc assay system from Promega. The gene product, luciferase enzyme, reacts with luciferase substrate, emitting light, which was detected using a luminometer (LUMIstar Galaxy BMG). Data for NF-κB inhibition are expressed as IC50 values (i.e., concentration required to inhibit TNFinduced NF-kB activity by 50%). The known NF-κB inhibitor TPCK was used as a positive control.

[6] = tested on: STAT3; parameters: method as in PMID 26107089, PMID 16928075; details: cited from earlier work
[7] = Homo sapiens, HEK293, TNF-α (2 ng/mL) induced NF-κB activity

Structure (SMILES)	IC50 [3] [µM]	inhibition of E. coli JW2496 [1]	IC50 at 6 h [2] [µM]	IC50 at 20 h [4] [µM]	IC50 [5, 7] [µM]	IC50 ([5]; TNF-α (2 ng/mL) induced NF-κB activity) [µM]	STAT3 inhibition [6]
CCCCC[C@@H]1OC2=C(C(=O)N(OC)[C@@H]2CSC[C@@H](O)C(=O)O)[C@H](O)[C@@]1(C)O [Compound 1, Paraphaeosphaeride E]	47.9 ± 0.03	mildly inhibited	> 50	> 50	7.1	–	–
Cc1ccc(S(=O)(=O)N[C@@H](Cc2ccccc2)C(=O)CCl)cc1 [TPCK, N α-tosyl-l-phenylalanine chloromethyl ketone, reference compound]	–	–	–	–	–	4.09 ± 0.12	–
C=C1C2=C(C(=O)N1OC)[C@H](O)[C@@](C)(O)[C@H](CCCCC)O2 [phaeosphaeride A]	–	–	–	–	–	–	showed STAT3 inhibition; also recorded: showed STAT3 inhibitory activity

Second part, led by results:

IC50 [3] [µM]	Structure (SMILES)	inhibition of E. coli JW2496 [1]	IC50 at 6 h [2] [µM]	IC50 at 20 h [4] [µM]	IC50 [5, 7] [µM]	IC50 ([5]; TNF-α (2 ng/mL) induced NF-κB activity) [µM]	STAT3 inhibition [6]
43.2 ± 0.7	CCCCC[C@@H]1OC2=C(C(=O)N(OC)[C@@H]2CSC[C@@H](O)C(=O)O)[C@@H](O)[C@@]1(C)O [Compound 2, Paraphaeosphaeride F]	–	> 50	> 50	–	–	–
16.1 ± 6.6	CCCCC[C@@H]1OC2=C(C(=O)N(OC)[C@@H]2C[S@+]([O-])C[C@@H](O)C(=O)O)[C@H](O)[C@@]1(C)O [Compound 3, Paraphaeosphaeride G]	–	> 50	> 50	1.5	–	–
